Reference: ChEMBL document CHEMBL1201862, “PubChem BioAssay data set” (2004)
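Values below derive from 48-hour exposures of cells grown in 96-well plates, with endpoints linearly interpolated between the two concentrations bracketing the appropriate inhibition level. GI50 is the concentration that inhibits growth by half.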 Activity calls are given as the source filed them. No stated cut-off is given here; in the data, active = GI50 up to about 1.1 µM and inactive = higher.

What was measured:
Assay in all cases: NCI-60 cell line screen, 48 h
[1] = test system: A498
[2] = test system: A549
[3] = test system: CAKI-1
[4] = test system: CCRF-CEM
[5] = test system: COLO 205
[6] = test system: DLD-1
[7] = test system: DMS-114
[8] = test system: DMS-273
[9] = test system: EKVX
[10] = test system: HCC 2998
[11] = test system: HCT-116
[12] = test system: HCT-15
[13] = test system: HL-60
[14] = test system: HOP-18
[15] = test system: HOP-62
[16] = test system: HOP-92
[17] = test system: HT-29
[18] = test system: IGROV-1
[19] = test system: K562
[20] = test system: KM-20L2
[21] = test system: KM12
[22] = test system: LOX IMVI
[23] = test system: M19-MEL
[24] = test system: MCF7
[25] = test system: MOLT-4
[26] = test system: NCI-H226
[27] = test system: NCI-H23
[28] = test system: NCI-H460
[29] = test system: NCI/ADR-RES
[30] = test system: OVCAR-3
[31] = test system: OVCAR-4
[32] = test system: OVCAR-5
[33] = test system: OVCAR-8
[34] = test system: RPMI-8226
[35] = test system: RXF 393
[36] = test system: SF-268
[37] = test system: SF-295
[38] = test system: SF-539
[39] = test system: SK-MEL-28
[40] = test system: SK-MEL-2
[41] = test system: SK-MEL-5
[42] = test system: SK-OV-3
[43] = test system: SN12C
[44] = test system: SNB-19
[45] = test system: SNB-75
[46] = test system: SNB-78
[47] = test system: SW-620
[48] = test system: U-251
[49] = test system: UACC-257
[50] = test system: UACC-62
[51] = test system: UO-31
[52] = test system: XF498
[53] = test system: 786-0
[54] = test system: ACHN
[55] = test system: LXFL 529
[56] = test system: Malme-3M
[57] = test system: NCI-H522
[58] = test system: TK-10

Structure (SMILES): O=C(OC(=O)n1ccc2ccccc21)n1ccc2ccccc21
- GI50 [1]: > 100 µM (inactive)
- GI50 [2]: > 100 µM (inactive)
- GI50 [3]: > 96.4 µM (inactive)
- GI50 [4]: > 100 µM (inactive)
- GI50 [5]: > 100 µM (inactive)
- GI50 [6]: > 100 µM (inactive)
- GI50 [7]: > 100 µM (inactive)
- GI50 [8]: > 100 µM (inactive)
- GI50 [9]: > 100 µM (inactive)
- GI50 [10]: > 100 µM (inactive)
- GI50 [11]: > 100 µM (inactive)
- GI50 [12]: > 100 µM
- GI50 [13]: > 100 µM (inactive)
- GI50 [14]: > 100 µM (inactive)
- GI50 [15]: > 100 µM (inactive)
- GI50 [16]: > 100 µM (inactive)
- GI50 [17]: > 100 µM (inactive)
- GI50 [18]: > 100 µM (inactive)
- GI50 [19]: > 100 µM (inactive)
- GI50 [20]: > 100 µM (inactive)
- GI50 [21]: > 100 µM (inactive)
- GI50 [22]: > 100 µM (inactive)
- GI50 [23]: > 100 µM (inactive)
- GI50 [24]: > 100 µM (inactive)
- GI50 [25]: > 100 µM (inactive)
- GI50 [26]: > 100 µM (inactive)
- GI50 [27]: > 100 µM (inactive)
- GI50 [28]: > 100 µM (inactive)
- GI50 [29]: > 100 µM (inactive)
- GI50 [30]: > 100 µM (inactive)
- GI50 [31]: > 100 µM (inactive)
- GI50 [32]: > 100 µM (inactive)
- GI50 [33]: > 100 µM (inactive)
- GI50 [34]: > 100 µM (inactive)
- GI50 [35]: > 100 µM (inactive)
- GI50 [36]: > 100 µM (inactive)
- GI50 [37]: > 92.3 µM (inactive)
- GI50 [38]: > 100 µM (inactive)
- GI50 [39]: > 100 µM (inactive)
- GI50 [40]: > 100 µM (inactive)
- GI50 [41]: > 100 µM (inactive)
- GI50 [42]: > 100 µM (inactive)
- GI50 [43]: > 100 µM (inactive)
- GI50 [44]: > 100 µM (inactive)
- GI50 [45]: 84.1 µM (inactive)
- GI50 [46]: > 100 µM (inactive)
- GI50 [47]: > 100 µM (inactive)
- GI50 [48]: > 100 µM (inactive)
- GI50 [49]: > 100 µM (inactive)
- GI50 [50]: > 100 µM (inactive)
- GI50 [51]: 75.7 µM (inactive)
- GI50 [52]: > 100 µM (inactive)

Structure (SMILES): CN1CCS(=O)(=O)NC(Cc2ccccc2)C(=O)N2CCCC2C1=O (stereo not given)
- GI50 [53]: > 100 µM (inactive)
- GI50 [1]: > 100 µM (inactive)
- GI50 [2]: > 100 µM (inactive)
- GI50 [54]: > 100 µM (inactive)
- GI50 [3]: > 100 µM (inactive)
- GI50 [4]: > 100 µM (inactive)
- GI50 [5]: > 100 µM (inactive)
- GI50 [6]: > 100 µM (inactive)
- GI50 [7]: > 100 µM (inactive)
- GI50 [8]: > 100 µM (inactive)
- GI50 [9]: > 100 µM (inactive)
- GI50 [10]: > 100 µM (inactive)
- GI50 [11]: > 100 µM (inactive)
- GI50 [12]: > 100 µM
- GI50 [13]: > 100 µM (inactive)
- GI50 [14]: > 100 µM (inactive)
- GI50 [15]: > 100 µM (inactive)
- GI50 [17]: > 100 µM (inactive)
- GI50 [18]: > 100 µM (inactive)
- GI50 [19]: > 100 µM (inactive)
- GI50 [20]: > 100 µM (inactive)
- GI50 [21]: > 100 µM (inactive)
- GI50 [22]: > 100 µM (inactive)
- GI50 [55]: > 100 µM (inactive)
- GI50 [23]: > 100 µM (inactive)
- GI50 [25]: > 100 µM (inactive)
- GI50 [56]: > 100 µM (inactive)
- GI50 [26]: > 100 µM (inactive)
- GI50 [27]: > 100 µM (inactive)
- GI50 [57]: > 100 µM (inactive)
- GI50 [30]: > 100 µM (inactive)
- GI50 [31]: > 100 µM (inactive)
- GI50 [32]: > 100 µM (inactive)
- GI50 [33]: > 100 µM (inactive)
- GI50 [34]: > 100 µM (inactive)
- GI50 [36]: > 100 µM (inactive)
- GI50 [37]: > 100 µM (inactive)
- GI50 [38]: > 100 µM (inactive)
- GI50 [39]: > 100 µM (inactive)
- GI50 [40]: > 100 µM (inactive)
- GI50 [41]: > 100 µM (inactive)
- GI50 [42]: > 100 µM (inactive)
- GI50 [43]: > 100 µM (inactive)
- GI50 [44]: > 100 µM (inactive)
- GI50 [45]: > 100 µM (inactive)
- GI50 [46]: > 100 µM (inactive)
- GI50 [47]: > 100 µM (inactive)
- GI50 [58]: > 100 µM (inactive)
- GI50 [48]: > 100 µM (inactive)
- GI50 [49]: > 100 µM (inactive)
- GI50 [50]: > 100 µM (inactive)
- GI50 [51]: > 100 µM (inactive)
- GI50 [52]: > 100 µM (inactive)
